Experimental data: US8383111B2, “Inotropic antibodies and therapeutic uses thereof” (priority 2002, dated 2013)
“Also recorded” adds a separate entry of the source. Read-outs that look alike come from different tables or passages of the source.

Experiments:
(Na^++K^+)-ATPase [1] = assay: Immunofluorescent staining of antibody in rat cardiac myocytes and CV-1 cells; format: binding, rat; African green monkey; conditions: for competition with the Jianye-2 antibody binding site (Jianye-2 antibody staining in presence of competitor): 1 mM ouabain or strophanthidin
Excerpt: FIG. 1 (which includes FIGS. 1A through 1F) are photographs showing the immunofluorescent staining of Jianye-2 antibody in rat cardiac myocytes and African green monkey CV-1 cells, FIGS. 1A-1B are photographs of the confocal image of rat cardiac myocytes in the presence of Jianye-2 (FIG. 1A) or with both Jianye-2 antibody and peptide blocker (FIG. 1B). […] FIG. 1D is a photograph of a single CV-1 cell image at 3000× FIGS. 1E-1F are photographs showing Jianye-2 antibody staining in the presence of either 1 mM ouabain (FIG. 1E) or strophanthidin (FIG. 1F).
Confocal image of rat cardiac myocytes in the presence of Jianye-2, shown in FIG. 1A or with both Jianye-2 antibody and peptide blocker (FIG. 1B). […] Jianye-2 antibody staining in the presence of either 1 mM ouabain (FIG. 1E) or strophanthidin (FIG. 1F). […] Time runs from left to right. […] Columns B, C, D show the results obtained 10, 20, 30 min after administration of either buffer (upper panel) or Jianye-2 antibody (lower panel, 85 nM). Enzyme activity was monitored in cell homogenates under the same experimental condition. […] The data represent a mean of 12 independent experiments. […] The data represent a mean of four independent experiments.

heart failure rats = assay: Immunization with KX-1 peptide vaccine in heart failure rat model (echocardiography); format: in vivo; conditions: peptide injected as vaccine, TiterMax Gold adjuvant, vs control heart failure rat without immunization
Description: FIG. 9 is a graph showing the effect of immunization with KX-1 on the rat cardiac heart failure function. The peptide DVEDSYGQQWTYEQR (SEQ ID NO: 2) was injected into the animal as a vaccine to reduce the rate of progression of heart failure in the heart failure rat model. TiterMax Gold was used as an adjuvant throughout the experiment.
Echocardiography (Echo) uses sound waves to form a picture of the heart valves and heart muscle. The Echo machine sends sound waves to a transducer (a sound sensitive instrument) that is placed on the animal's chest. The sound waves are reflected by the heart was (muscle) and heart valves and back to the transducer, which changes the sound into a picture. Gel is applied on the rat chest and a transducer is placed over the heart area. Heart structures are examined by changing the direction of the transducer. The sound waves cause no discomfort. Thus, an Echo detects the changes and provides information about heart chamber size, wall motion, valve movements, and structural changes in and around the heart.

rat ventricular myocytes = assay: Measurement of cell contraction in isolated rat ventricular myocytes; format: cell-based
Description: Ventricular cardiac myocytes were isolated from adult Sprague-Dawley rats (2-3 months old; weight 225-300 g) using standard enzymatic techniques. Briefly, following anesthesia (sodium pentobarbital, 100 mg/kg), the heart was quickly removed from the chest and aortic perfused at constant pressure (100 cmH2O) at 37° C. for 3 minutes with a Ca^2+-free bicarbonate-based buffer containing 120 mM NaCl, 5.4 mM MgSO4, 1.2 mM NaH2PO4, 5.6 mM glucose, 20 mM NaHCO3, and 5 mM taurine, in the presence of O2 (95%)-CO2 (5%). The enzymatic digestion was initiated by adding collagenase (Worthington Type II, 1 mg/ml) to the perfusion solution. Calcium (50 µM) was added to the enzyme solution when the heart became swollen. About 7 minutes later, the left ventricle was quickly removed, cut into several pieces, and further digested on a shaker (60-70 rpm) for 10 minutes in the same enzyme solution. The supernatant containing the dispersed myocytes was filtered into a test tube and gently centrifuged at 500 rpm for 1 minute. […]
Cardiac myocytes were isolated from wild-type adult Sprague-Dawley rats, using a standard enzymatic method described previously (Xu, K. Y., et al., (2002) BBRC, 289:167-172). […] Cell length was monitored from the bright-field image (650 nm to 750 nm red light illumination) by an optical edge-tracking method using a photodiode array (model 1024 SAQ, Reticon) with a 3-ms time resolution. […]

(Na^++K^+)-ATPase [2] = target: T1, (Na^++K^+)-ATPase (Rattus norvegicus, UniProt P06685); assay: Determination of (Na^++K^+)-ATPase activity; format: biochemical; conditions: monitored in cell homogenates under the same experimental condition as contraction
T1 construct: Rat cardiac sarcolemmal (SL) vesicles were isolated from rat heart muscle by sucrose flotation method; from tissue; host or cells: rat heart muscle (sarcolemmal vesicles, SDS treatment and sucrose gradient)

rat cardiac myocytes = assay: Measurement of intracellular Ca2+ transients; format: cell-based; conditions: rat heart cells; mean of 12 independent experiments
Description: Rat cardiac myocytes were loaded with 50 µg of a cell permeable fluorescent Ca.2+ probe, Indo-1/acetoxymethyl-ester (Indo-1/AM, Molecular Probes, Inc., Eugene, Oreg.) for 10 min and then resuspended in HEPES-buffered solution in the presence of 1 mM Ca.2+ and stored in the dark at room temperature for 60 min before be utilized for the experiments. The Indo-1 loaded cells were placed on the stage of a modified inverted microscope (model IM-35; Carl Zeiss, Inc., Thornwood, N.Y.) equipped for simultaneous recording of Indo-1 fluorescence and cell length. Cells were electrically paced at 0.5 Hz at room temperature and the excitation wavelength was selected by a 350-nm interference filter (bandwidth 10 nm; Oriel Corp., Stratford, Conn.). The ratio of emission intensity at 410 nm to that at 490 nm was computed offline as an index of intracellular Ca.2+ (Cai^2+) transient. The peak amplitude of the transient is defined as the difference of the 410:490 fluorescence ratio before and after electrical stimulation with or without antibody.

[3] = tested on: mouse heart left ventricle; assay: Measurement of mice cardiac contraction in vivo (pressure-volume catheter)
Description: Male wild-type mice (CD1, Charles River, 32-40 g) were utilized for this study. Mice In vivo cardiac functions were assessed by pressure-volume catheter in anesthetized mice. Briefly, mice were induced with 5% isofluorane, anesthetized with an intraperitoneal injection of urethane (300-500 mg/kg), etomidate (5 mg/kg) and morphine (0.5 mg kg-1), and intubated with a blunt 19 G needle inserted via tracheostomy. […] Ventilation was initiated with 100% oxygen using a custom-designed, constant flow ventilator delivering a tidal volume of […] at 120 breaths per min. The left external jugular vein was cannulated with a 30 G needle connected to an infusion pump. Modest volume expansion was provided (150 µL of 12.5% human albumin) at 50 µL/min. Following stabilization, a lateral incision was made at the xyphoid cartilage to expose the left ventricular (LV) apex. The 1.4F pressure-volume catheter (SPR-839, Millar Instruments Inc., Houston, Tex., USA) was inserted via an apical needle puncture with a 26 G needle, and advanced along the cardiac long axis. A 2F pacing catheter (NuMed, Nicholville, N.Y., USA) was placed in the esophagus, dorsal to the left atrium. Atrium was paced using 5-7 V, 2 ms pulses (SD25, Grass Instruments, Quincy, Mass., USA). Calibration of the volume signal was performed using a 5-10 µL bolus of 30% hypertonic saline injected into the jugular vein to determine the signal offset and ultrasound flow probe (AT01RB, Transonic Systems Inc.) placed around the thoracic aorta to determine signal gain. Data were digitized at 2 kHz and stored to disk for off line analysis.
Mice cardiac atria pacing were maintained at constant beating (600 beats/min). The hearts were infused with PBS (5 µl/min) for 10 min prior for administration of SSA78 infusion (5 µl/min) for 30 minutes and following by 10 min PBS washout at 5 µl/min. […] Steady-state indices were derived from 10 consecutive averaged beats. Cardiac preload was indexed as the left ventricular end-diastolic volume (EDV) and end-diastolic pressure (EDP). Cardiac afterload was evaluated as effective arterial elastance (Ea; ratio of LV systolic pressure to stroke volume). This parameter is not preload dependent and had been validated to closely approximate total afterload, which incorporates systemic vascular resistance, aortic impedance, and the reflected wave properties of the vasculature. Myocardial contractility was indexed by cardiac output (CO), dPdt max, dPdt max normalized to instantaneous developed pressure (dPdt max/IP), the load-independent end-systolic pressure-volume relationship (Ees) and preload recruitable stroke work (PRSW). Diastolic perform performance was measured by dPdt min and the time constant of ventricular relaxation.

## C[C@@H]1O[C@@H](O[C@H]2C[C@@H](O)[C@]3(CO)[C@H]4[C@H](O)C[C@]5(C)[C@@H](C6=CC(=O)OC6)CC[C@]5(O)[C@@H]4CC[C@]3(O)C2)[C@H](O)[C@H](O)[C@H]1O [ouabain, reference compound]
(Na^++K^+)-ATPase [1]
  competition with the Jianye-2 antibody binding site (Jianye-2 antibody staining in presence of competitor): compete with the Jianye-2 antibody binding site

## C[C@]12CC[C@H]3[C@@H](CC[C@]4(O)C[C@@H](O)CC[C@]34C=O)[C@@]1(O)CC[C@@H]2C1=CC(=O)OC1 [strophanthidin, reference compound]
(Na^++K^+)-ATPase [1]
  competition with the Jianye-2 antibody binding site (Jianye-2 antibody staining in presence of competitor): compete with the Jianye-2 antibody binding site

## DVEDSYGQQWTYEQR [peptide of the H7-H8 domain of (Na++K+)-ATPase alpha-subunit, injected as vaccine to generate endogenous KX-1 antibody]
Heart failure rats
  rate of progression of heart failure (cardiac function): significantly decreased the progression of heart failure; also recorded: significantly delayed the rate of the progression of heart failure

## Jianye-2 antibody: polyclonal rabbit IgG recognizing the RSATEEEPPNDD (SEQ ID NO: 1) peptide (H1-H2 domain) of the alpha-subunit of (Na++K+)-ATPase
(Na^++K^+)-ATPase [1]; rat cardiac myocytes and African green monkey CV-1 cells
  binding to the (Na++K+)-ATPase on the surface of the cell membrane (immunofluorescent staining): specifically binds; also recorded: binds to its antigenic site
Rat ventricular myocytes; 85 nM antibody, 10, 20, 30 min after administration, vs buffer
  rat heart cell contraction (time course): enhanced rat heart cell contraction
Rat ventricular myocytes; dose-dependent contractile response in rat ventricular myocytes, mean of four independent experiments, read-out: half maximal contractile response (EC50)
  EC50: 35 nM
(Na^++K^+)-ATPase [2]
  (Na++K+)-ATPase activity: without inhibiting
Rat cardiac myocytes
  intracellular Ca2+: markedly increased
[3]
  first order rate constant of increase in mouse heart contraction: 1.06 %/min
[3]; 3.4 µM antibody
  first order rate constant of increase in mouse heart contraction: 1.06 %/min
[3]; 3.4 µM antibody, 5 min
  mouse heart contraction, percent of background control (0 min as 100%): 108(.+−.5.3) %
[3]; 3.4 µM antibody, 10 min
  mouse heart contraction, percent of background control (0 min as 100%): 113(.+−.7) %
[3]; 3.4 µM antibody, 15 min
  mouse heart contraction, percent of background control (0 min as 100%): 116(.+−.10) %
[3]; 3.4 µM antibody, 20 min
  mouse heart contraction, percent of background control (0 min as 100%): 122(.+−.9.0) %
[3]; 6.0 µM antibody
  first order rate constant of increase in mouse heart contraction: 2.16 %/min
[3]; 6.0 µM antibody, 5 min
  mouse heart contraction, percent of background control (0 min as 100%): 115(.+−.9.0) %
[3]; 6.0 µM antibody, 10 min
  mouse heart contraction, percent of background control (0 min as 100%): 127(.+−.21) %
[3]; 6.0 µM antibody, 15 min
  mouse heart contraction, percent of background control (0 min as 100%): 137(.+−.16) %
[3]; 6.0 µM antibody, 20 min
  mouse heart contraction, percent of background control (0 min as 100%): 143(.+−.30) %
[3]; 6.0 mM antibody
  first order rate constant of increase in mouse heart contraction: 2.16 %/min
[3]; 6.0 mM antibody, 5 min
  mouse heart contraction, percent of background control (0 min as 100%): 115(.+−.9.0) %
[3]; 6.0 mM antibody, 10 min
  mouse heart contraction, percent of background control (0 min as 100%): 127(.+−.21) %
[3]; 6.0 mM antibody, 15 min
  mouse heart contraction, percent of background control (0 min as 100%): 137(.+−.16) %
[3]; 6.0 mM antibody, 20 min
  mouse heart contraction, percent of background control (0 min as 100%): 143(.+−.30) %
[3]; 5 min
  mouse heart contraction, percent of background control (0 min as 100%): 108(.+−.5.3) %
[3]; 10 min
  mouse heart contraction, percent of background control (0 min as 100%): 113(.+−.7) %
[3]; 15 min
  mouse heart contraction, percent of background control (0 min as 100%): 116(.+−.10) %
[3]; 20 min
  mouse heart contraction, percent of background control (0 min as 100%): 122(.+−.9.0) %
[3]; normal mouse heart left ventricle, 6.0 µM in PBS, pH 7.2, total 150 ml at 5 ml/min
  positive inotropic effect (ventricular pressure-volume loops): dramatically induced a reversible positive inotropic effect
